Results on 4 compounds are retold here after patent US20220162610A1, “NOVEL RNA TRANSCRIPT” (PTC Therapeutics, Inc., priority 2020, published 2022).

Structures are written as SMILES.

One experiment relates to human HTT protein. Nature of the experiment: Pharmacodynamic study in BACHD mice, HTT protein in tissues. It is filed as in vivo. As to the method:
Test mice were euthanised and brain, muscle (quadriceps), and blood samples were harvested 2 hours after the last dose on Day 20. Prior to analysis, crude total protein from brain and muscle tissue samples was prepared by sample lysis in MSD® assay buffer 1 (MSD®) with Complete™ Protease Inhibitor Cocktail added (Roche Diagnostics). Tissues were then homogenised using TissueLyser II (Qiagen) plus a 5 mm stainless steel bead. The lysate was clarified by centrifugation at 16,000×g for 20 minutes at 4° C. and the total protein concentration quantified with the Pierce™ BCA Protein Assay Kit (Thermo Scientific) according to the manufacturer's instructions. Whole blood was collected by cardiac puncture into EDTA collection tubes. An aliquot (100-200 μL) was added to 1.5 mL of eBioscience™ 1× Red Blood Cell Lysis Buffer (Thermo Fisher) and mixed well for 5 minutes before collecting the white blood cells (WBC) by centrifugation at 400×g. The supernatant was discarded, and the pellet of WBCs was frozen in liquid nitrogen and stored at −70° C. Brain and muscle sample lysates were analysed for hHTT and KRAS protein expression using the ECL protein assay (described previously); using the same method WBC samples were also analysed for hHTT expression but not KRAS.
Each tissue sample was tested in duplicate using the ECL protein assay and the average hHTT and KRAS readouts were calculated. The ratio of the mean hHTT signal to the mean KRAS signal (×1000) was determined for each test animal. The hHTT/KRAS ratio grand mean for the vehicle group of five test animals was calculated and the fold change relative to the vehicle grand mean was determined for each test animal in each group. Percent hHTT (% hHTT) lowering normalised to KRAS was determined for each test animal by subtracting the fold change from one and multiplying the difference by 100. Each experiment was performed twice yielding ten % hHTT lowering values for each treatment group. For each treatment group, the mean % hHTT lowering plus the standard error of the mean (SEM) was plotted as a bar graph. The % hHTT lowering in white blood cell samples was determined without KRAS using the grand hHTT vehicle mean instead of the grand hHTT/KRAS ratio vehicle mean.
BACHD: Pharmacodynamic (PD) evaluations were performed in BACHD mice aged 6-10 weeks. Compound or vehicle (HPMC/0.1% Tween 80) was administered to BACHD mice (5 female mice per group) once daily for 21 doses (QD×21) by oral gavage; dosing volumes were 10 mL/kg. Each animal was regularly observed for mortality or signs of pain, distress, or overt toxicity and findings were recorded. Body weights were recorded at the start and at least once a week during the course of the study. As described previously, tissue samples were obtained and prepared for ECL protein assay analysis from each animal as described previously.

In another experiment the test system is HTT protein. Briefly: HTT protein electrochemiluminescence (ECL) assay in HD patient fibroblasts, 96 h. It is filed as cell-based, human. Conditions: for HTT protein level: fibroblasts derived from HD patients, 96 h. As to the method:
Human fibroblasts derived from a homozygous patient with HD (GM4857) were cultured for 96 hours in the presence of test compounds (in 0.5% DMSO) or controls at 37° C. in a humidified 5% CO2 atmosphere. After 96 hours, cells were lysed and frozen. HTT protein levels were measured in lysates as described below. Compounds that decreased HTT protein levels relative to DMSO control were further tested in a dose response assay.
For analysis in the electrochemiluminescence (ECL) assays, test compounds were serially diluted 3-fold in 100% DMSO (Sigma) to generate a 7-point concentration curve. A solution of test compound (500 nL, 200× in DMSO) was added to each test well with Acoustic Transfer System (EDC Biosystems); final concentration of DMSO was 0.5%. Fibroblasts were seeded in 96-well flat-bottomed plates (Thermo Fisher) at 4×10^3 cells/well in 100 μl of culture medium containing the test compound or DMSO vehicle control and incubated for 96 hours (37° C., 5% CO2, 100% relative humidity). After removal of the supernatant, cells were lysed in 50 μL of 1×LB11 extraction buffer (50 mM Tris (pH 7.4), 300 mM NaCl, 10% [w/v] glycerol, 3 mM EDTA, 1 mM MgCl2, 20 mM glycerophosphate, 25 mM NaF, 1% Triton X-100), containing a Complete™ protease inhibitor cocktail (Roche Diagnostics) with shaking at 4° C. for 30 minutes; the plates were then stored at −20° C.
Meso Scale Discovery® 96-well plates (MSD®) were coated overnight at 4° C. with primary antibodies in phosphate-buffered saline (PBS; 30 μl/well). The plates were washed three times with 0.05% Tween-20 in 1×PBS (PBS-T; 200 μl/well) then blocked (100 μl/well; 5% bovine serum albumin [BSA] in PBS-T) for 5-6 hours at room temperature (RT) with shaking. Plates were then washed three times with PBS-T. Cell lysates were transferred to the antibody coated plates (25 μl/well) and incubated with shaking overnight at 4° C. After removal of the lysates, the plates were washed three times with PBS-T, and 25 μl of detection antibody in 1% BSA, PBS-T was added to each well and incubated with shaking for 1 hour at room temperature. After three washes with PBS-T, 25 μl of Sulfo-Tag secondary antibody (MSD®; 0.25 μg/ml in 1% BSA, PBS-T) was added to each well and incubated with shaking for 1 hour at RT. After washing three times with PBS-T, 150 μl of read buffer T with surfactant (MSD®) was added to each empty well and the plate was imaged on the SI 6000 imager (MSD®) according to manufacturers' instructions for 96-well plates. Primary capture antibodies included: anti-polyglutamine-expanded HTT mouse monoclonal antibody (mAb) clone MW1 (1 μg/mL; Developmental Studies Hybridoma Bank); anti-HTT MAB2166 mAb (1 μg/mL; Millipore); anti-human KRAS rabbit polyclonal antibody (1 μg/mL; Thermo Fisher Scientific). Detection antibodies included: Huntingtin (D7F7) XP® Rabbit mAb (0.25 μg/ml; Cell Signalling Technology®); anti-hKRAS mouse mAb (0.25 μg/ml; LSBIO).

As to `CC1(C)CC(Oc2ccc(-c3ccc(-c4cn[nH]c4)cc3O)nn2)CC(C)(C)N1` [HTT-C2], the “time for protein expression to return to control levels after treatment cessation” value in the experiment with human HTT protein (10 mg/kg, brain) is reported as at most 10 days. In addition, the “time at which maximal reductions in HTT levels were achieved” value in the experiment on human HTT protein (10 mg/kg, brain, time course 4-63 days) is at most 21 days. Moreover, the “lowering of HTT protein throughout the whole brain” value in the experiment on human HTT protein (10 mg/kg, incl. striatum and cortex) is given as above 50%. The “HTT reduction in blood cells, muscle, heart, liver and kidney” value with human HTT protein (at doses required to achieve 50% HTT lowering in the brain) was above 90%. In addition, the “HTT levels within brain tissue” value with human HTT protein (daily oral administration, 3 or 10 mg/kg) was “dose-dependent reduction of HTT levels within brain tissue”. For the same compound, in the experiment with human HTT protein (oral administration), the “HTT protein within peripheral tissues” value is “dose dependently lowered HTT protein within peripheral tissues”.

Turning to `CC1(C)CC(Oc2ccc(-c3ccc(-c4ccnc(O)c4)cc3O)nn2)CC(C)(C)N1` [HTT-C1], in the experiment on HTT protein, the HTT protein level entry is “dose-dependent decrease”. The “wild type and mutant HTT protein expression” value in the experiment with HTT protein (fibroblasts, 96-hour treatment) is on record as “lowered HTT protein expression from both alleles”.

`CCN1CCC(c2cc(C)c3nc(-c4ccc5nn(C)cc5c4)cc(=O)n3c2)CC1` [HTT-D1]: the HTT protein level entry in the experiment with HTT protein is “dose-dependent decrease”.

Take `CCN1CCC(c2cc3c(F)cc(-c4cc(C)c5nc(C)cn5n4)cc3nn2)CC1` [HTT-D3]: in the experiment on human HTT protein (BACHD mice), the “HTT protein within the brain and peripheral tissues” value was “dose dependent and more equitable lowering of HTT protein”.
